Experiment: recombinant barcode read abundance after kanamycin selection (control-corrected) (log10(CPM+1)); higher = more efficient recombination; sequences stand for … in AGTGCAGAGAAAATCGGCCAGTTTTCTCTGCCTGCAGTCCGCATGCCGT…AGATTTATGCAGCGGACTGCCTTTCTCCCAAAGTGATAAACCGGACAGTATCATGGACCGGTTTTCCCGGTAATCCGTATTTGCAAGGTTGGTTTCACT; site = the 11-nt target
Outline: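 Pooled oligos, each joining a target to an IS621 bridge RNA target-binding loop, were cloned and co-electroporated with a donor plasmid into E. coli. Selective plates carried chloramphenicol/ampicillin/kanamycin and 0.1 mM IPTG, while chloramphenicol/ampicillin LB agar served as control, with two replicates of each. Recombination efficiency rests on averaged, control-corrected counts per million of barcodes at recombinant junctions, shown as log10(CPM+1).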
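Further: IS621 recombinase and bridge RNA in Escherichia coli cells.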

Sequence | recombinant barcode read abundance (log10)
GTGGATGCTTGGGTTCTAACCTGTTGCCT (site GGGGATTCTAG) | 0.28
GTGGATGCTTGGGTTCTAACCTGTTGCCT (site GTGGATGCTAG) | 1.6
GTGGGCCCTTGGGTTCTAACCTGTTGCCT (site GTATGCCCTAG) | 0.02
GTGGGCCCTTGGGTTCTAACCTGTTGCCT (site GTGGGCCCTAG) | 2.07
GTGGGCCCTTGGGTTCTAACCTGTTGCTG (site ATCGGCCCTCA) | 0.302
GTGGGCCCTTGGGTTCTAACCTGTTGCTG (site GTGGGCCCTCA) | 2.73
GTGGGCTCTTGGGTTCTAACCTGTTGCCT (site CTGGGCTCTTG) | 0.0529
GTGGGCTCTTGGGTTCTAACCTGTTGCCT (site GTGGGCTCTAG) | 2.01
GTGGTAGCTTGGGTTCTAACCTGTTGCCT (site GTGGTAACTAG) | 0.857
GTGGTAGCTTGGGTTCTAACCTGTTGCCT (site GTGGTACCTAG) | 0.209
GTGGTAGCTTGGGTTCTAACCTGTTGCCT (site GTGGTAGCTAG) | 1.42
GTGGTAGCTTGGGTTCTAACCTGTTGCCT (site GTGGTATCTAG) | 0.0998
GTGGTGGCTTGGGTTCTAACCTGTTGCCT (site GTGGTGGCTAG) | 0.764
GTGGTGGCTTGGGTTCTAACCTGTTGCCT (site GTTGGGGCTAG) | 0.151
GTGTAGGCTTGGGTTCTAACCTGTTGCAG (site GTGTAGGCTCT) | 2.66
GTGTAGGCTTGGGTTCTAACCTGTTGCAG (site GTGTAGTCTCG) | 0.0205
GTGTATCCTTGGGTTCTAACCTGTTGCCA (site GTGAAGCCTTG) | 0.186
GTGTATCCTTGGGTTCTAACCTGTTGCCA (site GTGTATCCTTG) | 0.196
GTGTATTCTTGGGTTCTAACCTGTTGCCT (site ACTGTCACTCC) | 0.0809
GTGTATTCTTGGGTTCTAACCTGTTGCCT (site GTGTATTCTAG) | 1.44
GTGTCTACTTGGGTTCTAACCTGTTGCCT (site GTGTCTACTAG) | 0.754
GTGTCTACTTGGGTTCTAACCTGTTGCCT (site TTGTATACTAG) | 0.0293

Sequence | recombinant barcode read abundance (log10)
GTGTCTCCTTGGGTTCTAACCTGTTGCGA (site GAGTGTCCTTC) | 0.00692
GTGTCTCCTTGGGTTCTAACCTGTTGCGA (site GTGTCTCCTTC) | 0.996
GTGTGGACTTGGGTTCTAACCTGTTGCAG (site GTGAGGACTCA) | 0.0484
GTGTGGACTTGGGTTCTAACCTGTTGCAG (site GTGTGGACTCT) | 2.18
GTGTGGCCTTGGGTTCTAACCTGTTGCCA (site GTGTGGCCTTG) | 0.574
GTGTGGCCTTGGGTTCTAACCTGTTGCCA (site TCCGATACTAC) | 0
GTGTGGCCTTGGGTTCTAACCTGTTGCTT (site GAGTGCCCTAA) | 0.107
GTGTGGCCTTGGGTTCTAACCTGTTGCTT (site GTGTGGCCTAA) | 0.294
GTGTGTACTTGGGTTCTAACCTGTTGCCT (site GTGTGTACTAG) | 1.21
GTGTGTACTTGGGTTCTAACCTGTTGCCT (site GTGTGTCCTAG) | 0.101
GTGTGTACTTGGGTTCTAACCTGTTGCCT (site GTGTGTGCTAG) | 0.24
GTGTGTACTTGGGTTCTAACCTGTTGCCT (site GTGTGTTCTAG) | 0.0215
GTGTGTGCTTGGGTTCTAACCTGTTGCCT (site GTGTGTACTAG) | 0.821
GTGTGTGCTTGGGTTCTAACCTGTTGCCT (site GTGTGTCCTAG) | 0.0466
GTGTGTGCTTGGGTTCTAACCTGTTGCCT (site GTGTGTGCTAG) | 1.44
GTGTGTGCTTGGGTTCTAACCTGTTGCCT (site GTGTGTTCTAG) | 0.0513
GTGTGTTCTTGGGTTCTAACCTGTTGCCA (site GTGTGTTCTTG) | 0.336
GTGTGTTCTTGGGTTCTAACCTGTTGCCA (site TTGTGTTCTTA) | 0.0943
GTTACAACTTGGGTTCTAACCTGTTGCCT (site CTTACGACTAG) | 0.0197
GTTACAACTTGGGTTCTAACCTGTTGCCT (site GTTACAACTAG) | 0.263
GTTACGGCTTGGGTTCTAACCTGTTGCCT (site GTTACGGCTAG) | 0.0907
GTTACGGCTTGGGTTCTAACCTGTTGCCT (site GTTCCGGCTAG) | 0.0623

Sequence | recombinant barcode read abundance (log10)
GTTACGGCTTGGGTTCTAACCTGTTGCCT (site GTTGCGGCTAG) | 0.0497
GTTACGGCTTGGGTTCTAACCTGTTGCCT (site GTTTCGGCTAG) | 0
GTTAGAGCTTGGGTTCTAACCTGTTGCCT (site GTTAGAGCTAG) | 1.32
GTTAGAGCTTGGGTTCTAACCTGTTGCCT (site GTTCGAGCTAG) | 0.235
GTTAGAGCTTGGGTTCTAACCTGTTGCCT (site GTTGGAGCTAG) | 0.0737
GTTAGAGCTTGGGTTCTAACCTGTTGCCT (site GTTTGAGCTAG) | 0.225
GTTAGGCCTTGGGTTCTAACCTGTTGCCT (site GATAGGCCTAG) | 0.0232
GTTAGGCCTTGGGTTCTAACCTGTTGCCT (site GTTAGGCCTAG) | 0.292
GTTCAACCTTGGGTTCTAACCTGTTGCCT (site GATCAACCTAG) | 0.242
GTTCAACCTTGGGTTCTAACCTGTTGCCT (site GCTCAACCTAG) | 0.154
GTTCAACCTTGGGTTCTAACCTGTTGCCT (site GGTCAACCTAG) | 0.0287
GTTCAACCTTGGGTTCTAACCTGTTGCCT (site GTTCAACCTAG) | 1.48
GTTCCTCCTTGGGTTCTAACCTGTTGCCT (site GTTCCTCCTAG) | 0.823
GTTCCTCCTTGGGTTCTAACCTGTTGCCT (site GTTCCTGCTAG) | 0.0108
GTTGAGTCTTGGGTTCTAACCTGTTGCGT (site CTTGAGCCTAC) | 0.0835
GTTGAGTCTTGGGTTCTAACCTGTTGCGT (site GTTGAGTCTAC) | 1.87
GTTTATACTTGGGTTCTAACCTGTTGCCT (site GTATATACTAG) | 0.0265
GTTTATACTTGGGTTCTAACCTGTTGCCT (site GTCTATACTAG) | 0.091
GTTTATACTTGGGTTCTAACCTGTTGCCT (site GTGTATACTAG) | 0.0593
GTTTATACTTGGGTTCTAACCTGTTGCCT (site GTTTATACTAG) | 0.305
GTTTCGTCTTGGGTTCTAACCTGTTGCCT (site GTTTCGACTAG) | 0.0118
GTTTCGTCTTGGGTTCTAACCTGTTGCCT (site GTTTCGTCTAG) | 0.0924

Sequence | recombinant barcode read abundance (log10)
GTTTGACCTTGGGTTCTAACCTGTTGCGG (site GTTTGACCTCC) | 1.47
GTTTGACCTTGGGTTCTAACCTGTTGCGG (site TAGCTGACTGG) | 0.0274
GTTTGAGCTTGGGTTCTAACCTGTTGCCT (site GTTAGAGCTAG) | 0.231
GTTTGAGCTTGGGTTCTAACCTGTTGCCT (site GTTCGAGCTAG) | 0.261
GTTTGAGCTTGGGTTCTAACCTGTTGCCT (site GTTGGAGCTAG) | 0.05
GTTTGAGCTTGGGTTCTAACCTGTTGCCT (site GTTTGAGCTAG) | 0.625
TAAAAGCCTTGGGTTCTAACCTGTTGCCT (site TAAAAGACTAG) | 0.0773
TAAAAGCCTTGGGTTCTAACCTGTTGCCT (site TAAAAGCCTAG) | 0.42
TAAAAGCCTTGGGTTCTAACCTGTTGCCT (site TAAAAGGCTAG) | 0.0822
TAAAAGCCTTGGGTTCTAACCTGTTGCCT (site TAAAAGTCTAG) | 0.224
TAAATCACTTGGGTTCTAACCTGTTGCCG (site ACGTATGCTAT) | 0.0241
TAAATCACTTGGGTTCTAACCTGTTGCCG (site TAAATCACTCG) | 0.281
TAACGCTCTTGGGTTCTAACCTGTTGCCT (site AAACGCTCTAG) | 0.0696
TAACGCTCTTGGGTTCTAACCTGTTGCCT (site TAACGCTCTAG) | 1.2
TAACGGGCTTGGGTTCTAACCTGTTGCCG (site TAAAGGGCTAG) | 0.0666
TAACGGGCTTGGGTTCTAACCTGTTGCCG (site TAACGGGCTCG) | 0.529
TAACGTACTTGGGTTCTAACCTGTTGCTT (site TAAAGTACTAA) | 0.137
TAACGTACTTGGGTTCTAACCTGTTGCTT (site TAACGTACTAA) | 0.641
TAACGTACTTGGGTTCTAACCTGTTGCTT (site TAAGGTACTAA) | 0.109
TAACGTACTTGGGTTCTAACCTGTTGCTT (site TAATGTACTAA) | 0.0185

From the supplement of paper PMC11208160
